“And” between values parts separate entries of the source, which are not always exact repeats. Equal values may be shown once. Inconclusive results and toxic doses are left out.
Test system: L1210 leukemia ip in BDF1 mice, survival T/C
Assay: NCI In Vivo Anticancer Drug Screen. Data for tumor model L1210 Leukemia (intraperitoneal) in B6D2F1 (BDF1) mice
Details: endpoint: mean survival time, higher = longer survival
How it was run: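 Mice bearing the transplanted tumor received compound or vehicle. Survival of the treated group was divided by that of the vehicle-treated control group to give the ratio.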

[1] = dose: 100.0 mg/kg/injection, schedule: Q01DX001 (ip), vehicle: saline
[2] = dose: 200.0 mg/kg/injection, schedule: Q01DX001 (ip), vehicle: saline
[3] = dose: 400.0 mg/kg/injection, schedule: Q01DX001 (ip), vehicle: saline
[4] = dose: 100.0 mg/kg/injection, schedule: Q04DX003 (ip), vehicle: Klucel (hydroxypropylcellulose) (HPC)
[5] = dose: 200.0 mg/kg/injection, schedule: Q04DX003 (ip), vehicle: Klucel (hydroxypropylcellulose) (HPC)
[6] = dose: 400.0 mg/kg/injection, schedule: Q04DX003 (ip), vehicle: Klucel (hydroxypropylcellulose) (HPC)
[7] = dose: 100.0 mg/kg/injection, schedule: Q01DX001 (ip), vehicle: other
[8] = dose: 200.0 mg/kg/injection, schedule: Q01DX001 (ip), vehicle: other
[9] = dose: 400.0 mg/kg/injection, schedule: Q01DX001 (ip), vehicle: other
[10] = dose: 100.0 mg/kg/injection, schedule: Q01DX009 (ip), vehicle: other
[11] = dose: 200.0 mg/kg/injection, schedule: Q01DX009 (ip), vehicle: other
[12] = dose: 400.0 mg/kg/injection, schedule: Q01DX009 (ip), vehicle: other
[13] = dose: 100.0 mg/kg/injection, schedule: Q01DX009 (ip), vehicle: Klucel (hydroxypropylcellulose) (HPC)
[14] = dose: 200.0 mg/kg/injection, schedule: Q01DX009 (ip), vehicle: Klucel (hydroxypropylcellulose) (HPC)
[15] = dose: 400.0 mg/kg/injection, schedule: Q01DX009 (ip), vehicle: Klucel (hydroxypropylcellulose) (HPC)
[16] = dose: 100.0 mg/kg/injection, schedule: Q04DX003 (ip), vehicle: saline with Tween-80
[17] = dose: 200.0 mg/kg/injection, schedule: Q04DX003 (ip), vehicle: saline with Tween-80
[18] = dose: 400.0 mg/kg/injection, schedule: Q04DX003 (ip), vehicle: saline with Tween-80

CC(C)NC(=O)Nc1ccc(F)cc1
T/C (dose: 100.0 mg/kg/injection, schedule: Q01DX009 (ip), vehicle: acetone): 92 % of control | T/C (dose: 200.0 mg/kg/injection, schedule: Q01DX009 (ip), vehicle: acetone): 101 % of control | T/C (dose: 400.0 mg/kg/injection, schedule: Q01DX009 (ip), vehicle: acetone): 94 % of control

NNC(=O)c1ccncc1
T/C (dose: 12.5 mg/kg/injection, schedule: Q01DX009 (ip), vehicle: saline): 98 % of control | T/C (dose: 19.25 mg/kg/injection, schedule: Q01DX Z (ip), vehicle: carboxymethylcellulose (CMC)): 103 % of control | T/C (dose: 25.0 mg/kg/injection, schedule: Q01DX009 (ip), vehicle: saline): 107 % of control | T/C (dose: 25.0 mg/kg/injection, schedule: Q04DX003 (ip), vehicle: saline): 108 % of control | T/C (dose: 38.5 mg/kg/injection, schedule: Q01DX Z (ip), vehicle: carboxymethylcellulose (CMC)): 93 % of control | T/C (dose: 50.0 mg/kg/injection, schedule: Q01DX009 (ip), vehicle: saline): 104 % of control | T/C (dose: 50.0 mg/kg/injection, schedule: Q04DX003 (ip), vehicle: saline): 101 % of control | T/C (dose: 77.0 mg/kg/injection, schedule: Q01DX Z (ip), vehicle: carboxymethylcellulose (CMC)): 106 % of control | T/C [1]: 98 % of control | T/C (dose: 100.0 mg/kg/injection, schedule: Q01DX009 (ip), vehicle: saline): 100 % of control | T/C (dose: 100.0 mg/kg/injection, schedule: Q04DX003 (ip), vehicle: saline): 101 % of control | T/C (dose: 154.0 mg/kg/injection, schedule: Q01DX Z (ip), vehicle: carboxymethylcellulose (CMC)): 108 % of control | T/C (dose: 200.0 mg/kg/injection, schedule: Q04DX003 (ip), vehicle: saline): 86 % of control

CNc1ccc(C(=O)OC)cc1
T/C [1]: 100 % of control | T/C [2]: 100 % of control | T/C [3]: 103 % of control

CS(=O)(=O)N(c1nc2ccccc2s1)S(C)(=O)=O
T/C (dose: 100.0 mg/kg/injection, schedule: Q04DX003 (ip), vehicle: carboxymethylcellulose (CMC)): 95 % of control | T/C (dose: 200.0 mg/kg/injection, schedule: Q04DX003 (ip), vehicle: carboxymethylcellulose (CMC)): 93 % of control | T/C (dose: 400.0 mg/kg/injection, schedule: Q04DX003 (ip), vehicle: carboxymethylcellulose (CMC)): 95 % of control

N#Cc1c(C#N)c(N)n(N)c1N
T/C (dose: 200.0 mg/kg/injection, schedule: Q04DX002 (ip), vehicle: Klucel (hydroxypropylcellulose) (HPC)): 114 % of control

O=S(=O)(F)c1cc(Cl)cc(Cl)c1O
T/C (dose: 100.0 mg/kg/injection, schedule: Q04DX002 (ip), vehicle: other): 93 % of control | T/C (dose: 200.0 mg/kg/injection, schedule: Q04DX002 (ip), vehicle: other): 93 % of control | T/C (dose: 400.0 mg/kg/injection, schedule: Q04DX002 (ip), vehicle: other): 104 % of control

Cc1cccc(C)c1Nc1n[nH]c(=S)s1
T/C (dose: 100.0 mg/kg/injection, schedule: Q04DX002 (ip), vehicle: saline with Tween-80): 102 % of control | T/C (dose: 200.0 mg/kg/injection, schedule: Q04DX002 (ip), vehicle: saline with Tween-80): 105 % of control | T/C (dose: 400.0 mg/kg/injection, schedule: Q04DX002 (ip), vehicle: saline with Tween-80): 105 % of control

CCOC(=O)CC(=O)CC(C)C
T/C [4]: 101 % of control | T/C [5]: 97 % of control | T/C [6]: 88 % of control

c1ccc([As](c2ccccc2)c2ccccc2)cc1
T/C (dose: 50.0 mg/kg/injection, schedule: Q01DX001 (ip), vehicle: other): 103 % of control | T/C [7]: 103 % of control | T/C [8]: 97 % of control | T/C [9]: 103 % of control

O=C(Cl)OC12CC3CC(CC(C3)C1)C2
T/C (dose: 100.0 mg/kg/injection, schedule: Q01DX001 (ip), vehicle: Klucel (hydroxypropylcellulose) (HPC)): 95 % of control | T/C [10]: 105 % of control | T/C (dose: 200.0 mg/kg/injection, schedule: Q01DX001 (ip), vehicle: Klucel (hydroxypropylcellulose) (HPC)): 97 % of control | T/C [11]: 105 % of control | T/C (dose: 400.0 mg/kg/injection, schedule: Q01DX001 (ip), vehicle: Klucel (hydroxypropylcellulose) (HPC)): 100 % of control | T/C [12]: 105 % of control

CCCCCCCCCC(=O)CCCCCC
T/C [13]: 96 % of control | T/C [4]: 95 % of control | T/C [14]: 98 % of control | T/C [5]: 103 % of control | T/C [15]: 107 % of control | T/C [6]: 93 % of control

Cc1nc2ccccc2[nH]c1=O
T/C (dose: 75.0 mg/kg/injection, schedule: Q04DX003 (ip), vehicle: saline): 96 % of control | T/C [7]: 97 % of control | T/C (dose: 150.0 mg/kg/injection, schedule: Q04DX003 (ip), vehicle: saline): 100 % of control | T/C [8]: 100 % of control | T/C (dose: 300.0 mg/kg/injection, schedule: Q04DX003 (ip), vehicle: saline): 96 % of control | T/C [9]: 93 % of control

Cc1ccc(C(=O)CCCCl)cc1C
T/C [16]: 95 % of control | T/C [17]: 89 % of control | T/C [18]: 88 % of control

C=CC(=O)O (tested in a mixture with another compound)
T/C (dose: 100.0 mg/kg/injection, schedule: Q01DX Z (ip), vehicle: saline): 91 % of control

CC[N+](CC)(CC)CCCCC[N+](CC)(CC)CC
T/C (dose: 12.5 mg/kg/injection, schedule: Q01DX009 (ip), vehicle: water): 106 % of control | T/C (dose: 25.0 mg/kg/injection, schedule: Q01DX009 (ip), vehicle: water): 101 % of control | T/C (dose: 25.0 mg/kg/injection, schedule: Q04DX003 (ip), vehicle: saline with Tween-80): 94 % of control | T/C (dose: 50.0 mg/kg/injection, schedule: Q04DX003 (ip), vehicle: saline with Tween-80): 94 % of control

O=C1CCC2CCC(CC2)O1
T/C (dose: 5.0 mg/kg/injection, schedule: Q01DX001 (ip), vehicle: saline): 119 % of control | T/C (dose: 10.0 mg/kg/injection, schedule: Q01DX001 (ip), vehicle: saline): 92 % of control | T/C (dose: 20.0 mg/kg/injection, schedule: Q01DX001 (ip), vehicle: saline): 97 % of control

O=S1(=O)C2CCCCC2(N2CCOCC2)C1c1ccccc1 (stereo not drawn)
T/C (dose: 66.0 mg/kg/injection, schedule: Q04DX003 (ip), vehicle: other): 118 % of control | T/C [10]: 97 % of control | T/C (dose: 100.0 mg/kg/injection, schedule: Q04DX003 (ip), vehicle: other): 101 % of control and 202 % of control | T/C (dose: 150.0 mg/kg/injection, schedule: Q04DX003 (ip), vehicle: other): 93 % of control | T/C [11]: 97 % of control | T/C (dose: 200.0 mg/kg/injection, schedule: Q04DX003 (ip), vehicle: other): 97 % of control | T/C [12]: 100 % of control | T/C (dose: 400.0 mg/kg/injection, schedule: Q04DX003 (ip), vehicle: other): 94 % of control

CC(C)=NOC(=O)Nc1ccc2c(c1)OCO2
T/C [16]: 109 % of control | T/C [17]: 97 % of control | T/C [18]: 101 % of control

ClCCCCCCCCCCCl
T/C [13]: 94 % of control and 97 % of control | T/C [4]: 97 % of control | T/C [14]: 94 % of control and 102 % of control | T/C [5]: 92 % of control | T/C [15]: 92 % of control | T/C [6]: 99 % of control

O=C(O)c1cc(=O)c2c(OCC(O)COc3cccc4oc(C(=O)O)cc(=O)c34)cccc2o1
T/C [1]: 100 % of control | T/C [2]: 102 % of control | T/C [3]: 94 % of control

COC(=O)c1ccccc1-c1c(C)cccc1[N+](=O)[O-]
T/C (dose: 100.0 mg/kg/injection, schedule: Q01DX009 (ip), vehicle: saline with Tween-80): 105 % of control | T/C (dose: 200.0 mg/kg/injection, schedule: Q01DX009 (ip), vehicle: saline with Tween-80): 90 % of control | T/C (dose: 400.0 mg/kg/injection, schedule: Q01DX009 (ip), vehicle: saline with Tween-80): 100 % of control
